From patent US20260217701A1, “SELECTIVE BET INHIBITORS AND USES THEREOF” (Tay Therapeutics Limited, priority 2022, published 2026)
Entries after “also recorded” stand apart in the source; their conditions may differ.

Tested on: collagen-induced arthritis
Test: CIA model: histopathologic analysis of hind limbs
Type: in vivo, Lewis rats
Settings: for Erosion/Ulcer, cartilaginous, Marked (number of animals) / Erosion/Ulcer, cartilaginous, Mild (number of animals) / Erosion/Ulcer, cartilaginous, Minimal (number of animals) / Erosion/Ulcer, cartilaginous, Moderate (number of animals) / Granulation tissue, Marked (number of animals) / Granulation tissue, Mild (number of animals) / Granulation tissue, Minimal (number of animals) / Granulation tissue, Moderate (number of animals) / Increased bone, periosteum, Marked (number of animals) / Increased bone, periosteum, Mild (number of animals) / Increased bone, periosteum, Minimal (number of animals) / Increased bone, periosteum, Moderate (number of animals) / Increased eroded surface, bone, Marked (number of animals) / Increased eroded surface, bone, Mild (number of animals) / Increased eroded surface, bone, Minimal (number of animals) / Increased eroded surface, bone, Moderate (number of animals) / Mixed cell inflammation, Marked (number of animals) / Mixed cell inflammation, Mild (number of animals) / Mixed cell inflammation, Minimal (number of animals) / Mixed cell inflammation, Moderate (number of animals) / No Visible Lesions (number of animals): hind limbs, CIA induced, 8 animals examined
Excerpt: Mean histopathologic scores for tissue samples from animals in Groups 1-6 are depicted in FIG. 22A, and day 21 histology scores for all animals are illustrated in FIG. 22B.

[1] = Group 5 (CIA + Compound A 1 mg/kg), 1 mg/kg
[2] = Group 6 (CIA + Compound A 3 mg/kg)
[3] = Group 7 (CIA + Compound A 10 mg/kg), two out of eight samples

For `Cn1cc(-c2ccccc2)c(-c2cn(C)c(=O)c3[nH]c(-c4cnn(C(F)(F)F)c4)cc23)cc1=O` [Compound A, 6-methyl-4-(1-methyl-2-oxo-5-phenyl-1,2-dihydropyridin-4-yl)-2-(1-(trifluoromethyl)-1H-pyrazol-4-yl)-1,6-dihydro-7H-pyrrolo[2,3-c]pyridin-7-one], the “Samples with no pathologic observations” value (1 mg/kg, Group 5) was “One out of eight”, the “Samples with no pathologic observations” value (3 mg/kg, Group 6) was “Two out of eight” and the “Samples with no pathologic observations” value (10 mg/kg, Group 7) was “Six out of eight”. The “Animals exhibiting normal limb/joint pathology” value (10 mg/kg, day 21) was 6/8, the “Erosion/ulcer in articular cartilage, grade” value [1] was “mild and mild to moderate” and the “Granulation tissue (pannus), grade” value [1] was “mild and mild to moderate”. For the same molecule, the “Increased eroded surface of bone (bone resorption), grade” value [1] was “mild and mild to moderate”, the “Increased periosteal bone (periosteal bone formation), grade” value (“Increased periosteal bone” for short) [1] was “mild and mild to moderate” and the “Mixed cell inflammation, grade” value [1] was “moderate to marked”. The “Erosion/ulcer in articular cartilage, grade” value [2] was “mild”, the “Increased eroded surface of bone (bone resorption), grade” value [2] was “mild” and the “Increased periosteal bone” value [2] was “mild”. The “Mixed cell inflammation, grade” value [2] was “moderate”, the “Granulation tissue (pannus), grade” value (Group 6 (CIA + Compound A 3 mg/kg), 3 mg/kg) was “mild and mild to moderate” and the “Histopathological observations, representative sample/image” value (Group 7 (CIA + Compound A 10 mg/kg), FIG. 23G, 23I, 10 mg/kg) was “no histopathological observations noted; also recorded: normal joint pathology”. The “Erosion in the articular cartilage, grade” value [3] was “mild”, the “Granulation tissue (pannus), grade” value [3] was “mild” and the “Increased periosteal bone” value [3] was “minimal”. For the same molecule, the “Mixed cell inflammation, grade” value [3] was “mild to moderate”, the “Pathologic observations relative to CIA-induced group (Group 2)” value (Groups 5-7 (Compound A 1, 3, 10 mg/kg)) was “all decreased in severity, extent, and distribution” and the “Severity of arthritic histopathology versus vehicle- and GSK620-treated animals” value (all tested doses (1, 3, 10 mg/kg)) was “dose-dependent reduction in the severity of arthritic histopathology; also recorded: significant dose-dependent decrease in the incidence and severity of collagen-induced arthritis”. For the same molecule, the “Erosion/Ulcer, cartilaginous, Marked (number of animals)” value (“Erosion/Ulcer, cartilaginous, Marked” below) (1 mg/kg) was 0, the “Erosion/Ulcer, cartilaginous, Mild (number of animals)” value (“Erosion/Ulcer, cartilaginous, Mild” below) (1 mg/kg) was 6 and the “Erosion/Ulcer, cartilaginous, Minimal (number of animals)” value (1 mg/kg) was 0. The “Erosion/Ulcer, cartilaginous, Moderate (number of animals)” value (1 mg/kg) was 1, the “Granulation tissue, Marked (number of animals)” value (1 mg/kg) was 0 and the “Granulation tissue, Mild (number of animals)” value (1 mg/kg) was 3. For the same molecule, the “Granulation tissue, Minimal (number of animals)” value (1 mg/kg) was 0, the “Granulation tissue, Moderate (number of animals)” value (1 mg/kg) was 3 and the “Increased bone, periosteum, Marked (number of animals)” value (1 mg/kg) was 0. The “Increased bone, periosteum, Mild (number of animals)” value (1 mg/kg) was 4, the “Increased bone, periosteum, Minimal (number of animals)” value (1 mg/kg) was 1 and the “Increased bone, periosteum, Moderate (number of animals)” value (1 mg/kg) was 0. For the same molecule, the “Increased eroded surface, bone, Marked (number of animals)” value (1 mg/kg) was 0, the “Increased eroded surface, bone, Mild (number of animals)” value (1 mg/kg) was 3 and the “Increased eroded surface, bone, Minimal (number of animals)” value (1 mg/kg) was 0. For the same molecule, the “Increased eroded surface, bone, Moderate (number of animals)” value (1 mg/kg) was 2, the “Mixed cell inflammation, Marked (number of animals)” value (1 mg/kg) was 0 and the “Mixed cell inflammation, Mild (number of animals)” value (1 mg/kg) was 2. For the same molecule, the “Mixed cell inflammation, Minimal (number of animals)” value (1 mg/kg) was 1, the “Mixed cell inflammation, Moderate (number of animals)” value (1 mg/kg) was 4 and the “No Visible Lesions (number of animals)” value (1 mg/kg) was 1. The “Erosion/Ulcer, cartilaginous, Marked” value (3 mg/kg) was 0, the “Erosion/Ulcer, cartilaginous, Mild” value (3 mg/kg) was 3 and the “Erosion/Ulcer, cartilaginous, Minimal (number of animals)” value (3 mg/kg) was 3. For the same molecule, the “Erosion/Ulcer, cartilaginous, Moderate (number of animals)” value (3 mg/kg) was 0, the “Granulation tissue, Marked (number of animals)” value (3 mg/kg) was 0 and the “Granulation tissue, Mild (number of animals)” value (3 mg/kg) was 4. For the same molecule, the “Granulation tissue, Minimal (number of animals)” value (3 mg/kg) was 0, the “Granulation tissue, Moderate (number of animals)” value (3 mg/kg) was 2 and the “Increased bone, periosteum, Marked (number of animals)” value (3 mg/kg) was 0. The “Increased bone, periosteum, Mild (number of animals)” value (3 mg/kg) was 4, the “Increased bone, periosteum, Minimal (number of animals)” value (3 mg/kg) was 2 and the “Increased bone, periosteum, Moderate (number of animals)” value (3 mg/kg) was 0. The “Increased eroded surface, bone, Marked (number of animals)” value (3 mg/kg) was 0, the “Increased eroded surface, bone, Mild (number of animals)” value (3 mg/kg) was 3 and the “Increased eroded surface, bone, Minimal (number of animals)” value (3 mg/kg) was 2. For the same molecule, the “Increased eroded surface, bone, Moderate (number of animals)” value (3 mg/kg) was 0, the “Mixed cell inflammation, Marked (number of animals)” value (3 mg/kg) was 0 and the “Mixed cell inflammation, Mild (number of animals)” value (3 mg/kg) was 2. For the same molecule, the “Mixed cell inflammation, Minimal (number of animals)” value (3 mg/kg) was 0, the “Mixed cell inflammation, Moderate (number of animals)” value (3 mg/kg) was 4 and the “No Visible Lesions (number of animals)” value (3 mg/kg) was 2. The “Erosion/Ulcer, cartilaginous, Marked” value (10 mg/kg) was 0 and the “Erosion/Ulcer, cartilaginous, Mild” value (10 mg/kg) was 1.
